Each structure is given as a SMILES string.

Broadly, the IC50 is the concentration needed to halve the response being measured. Low readings indicate greater potency in that assay, high ones weaker potency in that assay.

The target of this experiment is T1, 15-hydroxyprostaglandin dehydrogenase [NAD(+)] (Homo sapiens, UniProt P15428).
T1 sequence (P15428 whole entry): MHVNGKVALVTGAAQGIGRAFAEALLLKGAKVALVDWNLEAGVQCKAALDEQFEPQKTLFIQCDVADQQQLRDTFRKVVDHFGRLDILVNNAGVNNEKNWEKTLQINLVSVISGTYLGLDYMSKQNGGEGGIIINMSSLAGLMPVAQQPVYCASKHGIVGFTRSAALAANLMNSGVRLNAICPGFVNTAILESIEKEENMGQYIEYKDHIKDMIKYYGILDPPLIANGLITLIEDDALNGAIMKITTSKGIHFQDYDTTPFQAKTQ
Description: Inhibition test of compounds on 15-PGDH enzyme. Here is the method:
15-PGDH (R&D Systems, Cat. No.: 5660-DH-010) was prepared to twice the final concentration, i.e., 30 nM, using Assay Buffer (50 mM Tris-HCl, pH 7.5, 0.01vol % Tween 20). The obtained mixture was then added to a 384-well white plate (Cisbio Bioassays, Cat. No. 66PL384025) at 8 μL/well. Negative control wells (with Assay Buffer only and without enzyme) were set. The compound was then prepared to 4 times the final concentration using Assay Buffer, i.e., diluted 3-fold to 10 concentrations starting from 4000 nM. The obtained mixture was added to the above white plate at 4 μL/well, mixed well, centrifuged at 1000 rpm for 1 minute, and incubated at 25° C. for 10 minutes. Both positive control wells (with 15-PGDH only) and negative control wells (without 15-PGDH) were set. A mixture of NAD+(Select, Cat. No. S2518) and PGE2 (R&D Systems, Cat. No.: 2296/10) was then prepared using Assay Buffer. NAD+ and PGE2 were prepared to four times their final concentrations, i.e., 2 mM and 0.12 mM, respectively, using Assay Buffer. The obtained mixture was then added to the above white plate at 4 μL/well, mixed well, centrifuged at 1000 rpm for 1 minute, and incubated at 25° C. for 30 minutes for the reaction. The fluorescence was detected at an excitation wavelength of 340 nm and an emission wavelength of 485 nm using instrument TECAN SPARK 20M.
As to `CN1CC2=CC(N3CC4CC4C4C=C(C(=O)N5CCC(F)(F)CC5)C=NC43)CN=C2C1=O` (configuration not stated) [US20250034134, Compound I-2], the IC50 came to 5.15 nM.

Turning to `CN1NC2C=C(N3C[C@H]4C[C@@H]4C4C=C(C(=O)N5CCC(F)(F)CC5)C=NC43)C=CN2C1=O` (some centres not stated) [US20250034134, Compound I-3B], half-maximal inhibition (IC50) required 3.58 nM.

The compound `CNC(=O)c1ccc(N2CC3CC3C3C=C(C(=O)N4CCC(F)(F)CC4)C=NC32)cc1F` (configuration not stated) [US20250034134, Compound I-9] displayed an IC50 of 9.51 nM.

Turning to `N#Cc1ccc(N2CC3CC3C3C=C(C(=O)N4CCC(F)(F)CC4)C=NC32)cc1` (configuration not stated) [US20250034134, Compound I-11], the IC50 worked out at 3.8 nM.

In the case of `Cn1ccc2c(c1=O)=CCC(N1C[C@@H]3C[C@@H]3C3C=C(C(=O)N4CCC(F)(F)CC4)C=NC31)C=2` (some centres not stated) [US20250034134, Compound I-12A], 1.52 nM corresponded to half-maximal inhibition (IC50).

`Cn1ccc2c(c1=O)=CCC(N1C[C@H]3C[C@@H]3C3C=C(C(=O)N4CCC(F)(F)CC4)C=NC31)C=2` (some centres not stated) [US20250034134, Compound I-12B] displayed an IC50 of 7.42 nM.

Compound `Cn1ccc2c(c1=O)=CCC(N1CC3CC3C3C=C(C(=O)N4CCC(F)(F)CC4)C=NC31)C=2` (configuration not stated) [US20250034134, Compound I-12] displayed a concentration for half-maximal inhibition (IC50) of 2.1 nM.

For `CN1C=NC2C=C(N3CC4CC4C4C=C(C(=O)N5CCC(F)(F)CC5)C=CC43)C=NC2C1=O` (configuration not stated) [US20250034134, Compound I-15], the IC50 stood at 5.7 nM.

`O=C(C1=CC2C3CC3CN(C3=CC4NC=NN4C=C3)C2N=C1)N1CCC(F)(F)CC1` (configuration not stated) [US20250034134, Compound I-16]: half-maximal inhibition (IC50) required 5.4 nM.

`O=C(C1=CC2C3CC3CN(C3=CC4NN=CN4C=C3)C2N=C1)N1CCC(F)(F)CC1` (configuration not stated) [US20250034134, Compound I-17] returned an IC50 of 4.5 nM.

`CN1C(=O)C2=NCC(N3CC4CC4C4C=C(C(=O)N5CCC(F)(F)CC5)C=NC43)C=C2C12CC2` (configuration not stated) [US20250034134, Compound I-19]: the IC50 was determined as 3.72 nM.

Turning to `CN1NC2C=C(N3CC4CC4C4C=C(C(=O)N5CCC(F)(F)C5)C=NC43)C=CN2C1=O` (configuration not stated) [US20250034134, Compound I-21], the IC50 is 4.95 nM.

`Cn1nc2cc(N3CC4CC4C4C=C(C(=O)N5CCOCC5)C=NC43)ccn2c1=O` (configuration not stated) [US20250034134, Compound I-22]: the midpoint of inhibition, the IC50, lay at 10.2 nM.

For the compound `CN1NC2C=C(N3CC4CC4C4C=C(C(=O)N5CCCC(C(F)F)C5)C=NC43)C=CN2C1=O` (configuration not stated) [US20250034134, Compound I-23], inhibition was half-maximal at 4.26 nM (IC50).

Compound `CN1NC2C=C(N3CC4CC4C4C=C(C(=O)N5CCCC(F)(F)C5)C=NC43)C=CN2C1=O` (configuration not stated) [US20250034134, Compound I-24] had an IC50 of 4.23 nM.

Take `[2H]C([2H])([2H])N1NC2C=C(N3C[C@H]4C[C@@H]4C4C=C(C(=O)N5CCC(F)(F)CC5)C=NC43)C=CN2C1=O` (some centres not stated) [US20250034134, Compound I-25B]: the IC50 worked out at 3.78 nM.

`[2H]C([2H])([2H])N1NC2C=C(N3CC4CC4C4C=C(C(=O)N5CCC(F)(F)CC5)C=NC43)C=CN2C1=O` (configuration not stated) [US20250034134, Compound I-25] had an IC50 of 2.59 nM.

For the compound `Cn1nc2cc(N3CC4CC4C4C=C(C(=O)N5CCCC(C(F)(F)F)C5)C=NC43)ccn2c1=O` (configuration not stated) [US20250034134, Compound I-26], it took 9.9 nM to reach half-maximal inhibition (IC50).

Compound `CN1NC2C=C(N3CC4CC4C4C=C(C(=O)N5CCCC(F)C5)C=NC43)C=CN2C1=O` (configuration not stated) [US20250034134, Compound I-27] came in with an IC50 of 5.7 nM.

The compound `CN1NC2C=C(N3CC4CC4C4C=C(C(=O)N5CCC6(CC5)CC6)C=NC43)C=CN2C1=O` (configuration not stated) [US20250034134, Compound I-28] displayed an IC50 of 1.71 nM.

Take `CN1NC2C=C(N3CC4CC4C4C=C(C(=O)N5CC6CC6C5)C=NC43)C=CN2C1=O` (configuration not stated) [US20250034134, Compound I-29]: inhibition was half-maximal at 5.3 nM (IC50).

`CN1NC2C=C(N3CC4CC4C4C=C(C(=O)N5CCC[C@@H](CF)C5)C=NC43)C=CN2C1=O` (some centres not stated) [US20250034134, Compound I-30] had an IC50 of 6 nM.

For the origin of these results see BindingDB's records for patent US20250034134 (Wuhan Humanwell Innovative Drug Research and Development …, 2025).
